According to patent publication US8895585B2, “Nicotinamide derivative or salt thereof” (FUJIFILM Corporation, priority 2010, dated 2014):

These molecules were tested against T1, glutathione S-transferase (GST)-fused full-length human Syk protein (Homo sapiens, UniProt P43405) (assay: Syk enzyme assay). Conditions: Syk enzyme assay, Test Example 1; read-out: IC50 of Syk-inhibitory activity.
T1 construct: (GST)-fused full-length human Syk protein; GST (glutathione S-transferase); purchased Carna Biosciences
Format: biochemical
Outline: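 IC50 values come from a time-resolved FRET readout (615 and 665 nm) of substrate phosphorylation, measured after an EDTA stop and 1 h antibody binding. The kinase reaction ran 40 min at room temperature with 27 μM ATP and 0.4 μM biotin-peptide, following a 15 min compound preincubation with baculovirus-made GST-full-length human Syk.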

| IC50 | SMILES |
| --- | --- |
| 0.1 to 1 µM | COc1cc(Nc2nc(N[C@H](C(N)=O)c3ccccc3)c(F)cc2C(N)=O)cc(OC)c1 [Example 016-018] |
| 0.1 to 1 µM | COc1cc(Nc2nc(Nc3ccncc3)c(F)cc2C(N)=O)cc(OC)c1 [Example 016-020] |
| 0.1 to 1 µM | COc1cc(Nc2nc(N3CCNC(=O)C3)c(F)cc2C(N)=O)cc(OC)c1 [Example 016-024] |
| 0.1 to 1 µM | COc1cc(Nc2nc(N3CCC(N)C3)c(F)cc2C(N)=O)cc(OC)c1 (centres unmarked) [Example 018-001] |
| 0.1 to 1 µM | COc1cc(Nc2nc(NCCc3c[nH]c4ccccc34)c(F)cc2C(N)=O)cc(OC)c1 [Example 020-002] |
| 0.1 to 1 µM | CNc1nc(Nc2cc(OC)cc(OC)c2)c(C(N)=O)cc1F [Example 022-008] |
| 0.1 to 1 µM | CS(=O)(=O)Nc1cncc(Nc2nc(NC3CCCCC3N)c(F)cc2C(N)=O)c1 (centres unmarked) [Example 027-006] |
| 0.01 to 0.05 µM | NC(=O)c1cc(F)c(NC2CCCCC2N)nc1Nc1cncc(NC(=O)c2ccccc2Cl)c1 (centres unmarked) [Example 027-007] |
| 0.01 to 0.05 µM | NC(=O)c1cc(F)c(NC2CCCCC2N)nc1Nc1cncc(NC(=O)c2cccc(Cl)c2)c1 (centres unmarked) [Example 027-008] |
| 0.01 to 0.05 µM | NC(=O)c1cc(F)c(NC2CCCCC2N)nc1Nc1cncc(NC(=O)c2ccc(Cl)cc2)c1 (centres unmarked) [Example 027-009] |

Second part, the molecule before the results:

| SMILES | IC50 |
| --- | --- |
| NC(=O)c1cc(F)c(N[C@H](Cc2ccccc2)c2ncc[nH]2)nc1Nc1ccc2ncccc2c1 [Example 012-029] | 0.1 to 1 µM |
| CC(C)C[C@@H](Nc1nc(Nc2ccc3ncccc3c2)c(C(N)=O)cc1F)c1ncc[nH]1 [Example 012-030] | 0.1 to 1 µM |
| CC(C)[C@@H](Nc1nc(Nc2ccc3ncccc3c2)c(C(N)=O)cc1F)C(N)=O [Example 012-032] | 0.05 to 0.1 µM |
| NC(=O)c1cc(F)c(NC(Cc2ccc(F)cc2)C(N)=O)nc1Nc1ccc2ncccc2c1 (centres unmarked) [Example 012-033] | 0.01 to 0.05 µM |
| COc1ccc(C[C@@H](Nc2nc(Nc3ccc4ncccc4c3)c(C(N)=O)cc2F)C(N)=O)cc1 [Example 012-034] | 0.1 to 1 µM |
| NC(=O)c1cc(F)c(N[C@H](Cc2cnc[nH]2)C(N)=O)nc1Nc1ccc2ncccc2c1 [Example 012-035, (R)-6-((1-amino-3-(1H-imidazol-5-yl)-1-oxopropan-2-yl)amino)-5-fluoro-2-((quinolin-6-yl)amino)nicotinamide] | 0.1 to 1 µM |
| CC(C)(C)[C@@H](Nc1nc(Nc2ccc3ncccc3c2)c(C(N)=O)cc1F)C(N)=O [Example 012-037] | 0.05 to 0.1 µM |
| CCC[C@@H](Nc1nc(Nc2ccc3ncccc3c2)c(C(N)=O)cc1F)C(N)=O [Example 012-038] | 0.01 to 0.05 µM |
| NC(=O)c1cc(F)c(NCC(N)Cc2ccccc2)nc1Nc1ccc2ncccc2c1 (centres unmarked) [Example 014-003] | 0.05 to 0.1 µM |
| CCC(N)CNc1nc(Nc2ccc3ncccc3c2)c(C(N)=O)cc1F (centres unmarked) [Example 014-004] | 0.01 to 0.05 µM |
| CC(C)(N)CNc1nc(Nc2ccc3ncccc3c2)c(C(N)=O)cc1F [Example 014-011, 6-((2-amino-2-methylpropyl)amino)-5-fluoro-2-((quinolin-6-yl)amino)nicotinamide] | 0.01 to 0.05 µM |
| CC(C)(CN)Nc1nc(Nc2ccc3ncccc3c2)c(C(N)=O)cc1F [Example 014-012, 6-((1-amino-2-methylpropan-2-yl)amino)-5-fluoro-2-((quinolin-6-yl)amino)nicotinamide] | 0.05 to 0.1 µM |
| CC(C)(C)[C@H](N)CNc1nc(Nc2ccc3ncccc3c2)c(C(N)=O)cc1F [Example 014-015, (S)-6-((2-amino-3,3-dimethylbutyl)amino)-5-fluoro-2-((quinolin-6-yl)amino)nicotinamide] | 0.05 to 0.1 µM |
| NC(=O)c1cc(F)c(NC[C@@H](N)c2cccnc2)nc1Nc1ccc2ncccc2c1 [Example 014-018, (S)-6-((2-amino-2-(pyridin-3-yl)ethyl)amino)-5-fluoro-2-((quinolin-6-yl)amino)nicotinamide] | 0.01 to 0.05 µM |
| NC(=O)c1cc(F)c(NCC2CCCCN2)nc1Nc1ccc2ncccc2c1 (centres unmarked) [Example 014-021] | 0.1 to 1 µM |
| CCNc1nc(Nc2cc(OC)cc(OC)c2)c(C(N)=O)cc1F [Example 016-001] | 0.1 to 1 µM |
| COc1cc(Nc2nc(NCC(N)=O)c(F)cc2C(N)=O)cc(OC)c1 [Example 016-005] | 0.1 to 1 µM |
| COc1cc(Nc2nc(NCC3CC3)c(F)cc2C(N)=O)cc(OC)c1 [Example 016-008] | 0.1 to 1 µM |
| COc1cc(Nc2nc(NC(C(N)=O)c3ccccc3)c(F)cc2C(N)=O)cc(OC)c1 (centres unmarked) [Example 016-009] | 0.01 to 0.05 µM |
| COc1cc(Nc2nc(NCCc3cnc[nH]3)c(F)cc2C(N)=O)cc(OC)c1 [Example 016-011] | 0.1 to 1 µM |
| C#CCNc1nc(Nc2cc(OC)cc(OC)c2)c(C(N)=O)cc1F [Example 016-012] | 0.1 to 1 µM |
| COc1cc(Nc2nc(NCc3ccccc3N)c(F)cc2C(N)=O)cc(OC)c1 [Example 016-014] | 0.1 to 1 µM |
| COc1cc(Nc2nc(NCc3ccc(N)cc3)c(F)cc2C(N)=O)cc(OC)c1 [Example 016-015] | 0.1 to 1 µM |
| COc1cc(Nc2nc(NCc3cc4ccccc4[nH]3)c(F)cc2C(N)=O)cc(OC)c1 [Example 016-016] | 0.1 to 1 µM |
| COc1cc(Nc2nc(N[C@@H](C(N)=O)c3ccccc3)c(F)cc2C(N)=O)cc(OC)c1 [Example 016-017] | 0.01 to 0.05 µM |

Same assay, conditions: read-out: Syk-inhibitory activity (IC50)

| IC50 | SMILES |
| --- | --- |
| ≤ 1 µM | COc1cc(Nc2nc(N[C@H](C(N)=O)c3ccccc3)c(F)cc2C(N)=O)cc(OC)c1 [Example 16-18, 6-(((1S)-2-amino-2-oxo-1-phenylethyl)amino)-2-((3,5-dimethoxyphenyl)amino)-5-fluoronicotinamide] |
| ≤ 1 µM | COc1cc(Nc2nc(N3CC[C@@H](N)C3)c(F)cc2C(N)=O)cc(OC)c1 [Example 17, 6-((3R)-3-aminopyrrolidin-1-yl)-2-(3,5-dimethoxyphenylamino)-5-fluoronicotinamide] |
| ≤ 1 µM | COc1cc(Nc2nc(NCCc3c[nH]c4ccccc34)c(F)cc2C(N)=O)cc(OC)c1 [Example 19, 2-(3,5-dimethoxyphenylamino)-5-fluoro-6-(2-(1H-indole-3-yl)ethylamino)nicotinamide] |
| ≤ 1 µM | CNc1nc(Nc2cc(OC)cc(OC)c2)c(C(N)=O)cc1F [Example 23, 2-(3,5-dimethoxyphenylamino)-5-fluoro-6-(methylamino)nicotinamide] |
| ≤ 1 µM | NC(=O)c1cc(F)c(Nc2cccnc2)nc1Nc1cnc2ccccc2c1 [Example 24, 5-fluoro-6-(pyridin-3-ylamino)-2-(quinolin-3-ylamino)nicotinamide] |

Further lines, the molecule ahead of its results:

| SMILES | IC50 |
| --- | --- |
| CCNc1nc(Nc2cc(OC)cc(OC)c2)c(C(N)=O)cc1F [Example 15, 2-(3,5-dimethoxyphenylamino)-6-(ethylamino)-5-fluoronicotinamide] | ≤ 1 µM |
| COc1cc(Nc2nc(NCC3CC3)c(F)cc2C(N)=O)cc(OC)c1 [Example 16-8, 6-((cyclopropylmethyl)amino)-2-((3,5-dimethoxyphenyl)amino)-5-fluoronicotinamide] | ≤ 1 µM |
| COc1cc(Nc2nc(NC(C(N)=O)c3ccccc3)c(F)cc2C(N)=O)cc(OC)c1 (centres unmarked) [Example 16-9, 6-((2-amino-2-oxo-1-phenylethyl)amino)-2-((3,5-dimethoxyphenyl)amino)-5-fluoronicotinamide] | ≤ 1 µM |
| COc1cc(Nc2nc(N[C@@H](C(N)=O)c3ccccc3)c(F)cc2C(N)=O)cc(OC)c1 [Example 16-17, 6-(((1R)-2-amino-2-oxo-1-phenylethyl)amino)-2-((3,5-dimethoxyphenyl)amino)-5-fluoronicotinamide] | ≤ 1 µM |
